# Where two headings read alike, the source gives them in different places.
# Key:
# [1] = tested on: various cancer cell lines as described in Table 21; test: Cell proliferation inhibitory effect on human cancer-derived cancer cell lines (method of Test Example 2); type: cell-based
# Protocol: Human derived breast cancer cell line HCC 1806 cells were daily passaged at a cell density not exceeding 80% in ATCC recommended Roswell Park Memorial Institute medium (RPMI-1640) containing 10% fetal bovine serum (FBS). In order to start the test of cell proliferation inhibitory activity, HCC 1806 cells were suspended in the above medium, after seeing at 180 μL in each well of a 96-well flat bottom plate so that the number of cells per well was 2,000, the cells were cultured at 37° C. for 1 day in an incubator containing 5% carbon dioxide gas. On the next day, the test compound was dissolved in DMSO, and 20 μL of a drug additive solution diluted serially with distilled water to 10 times of the final concentration was added to each well of the culture plate of the cells, and the cells were cultured at 37° C. for 72 hours in an incubator containing 5% carbon dioxide gas. After culturing for 72 hours, 20 μL of glutaraldehyde was added to each well and allowed to stand for 30 minutes, then the plate was washed 10 times with water and was dried. 100 μL of a stain solution (0.05% crystal violet in a 20% methanol solution) was added to each well and allowed to stand for 30 minutes, then the plate was washed 10 times with water and was dried. 100 μL of an extract solution (0.1 N NaH2PO4: 100% ethanol=1:1) was added to each well and mixed, and the mixture was measured at a wavelength of 540 nm using a plate reader (MTP-450 manufactured by Corona Electric Co., Ltd.). The growth inhibition rate was calculated from the following formula, and the concentration (IC50 (μM)) of a test compound inhibiting 50% was determined. Growth inhibition rate (%)={(C−B)−(T−B)}/(C−B)×100
# According to the method of Test Example 2, the cell proliferation inhibitory effect on various cancer cell lines as described in Table 21 was evaluated.
# HCC 1806 cells = test: Cell proliferation inhibitory effect on human breast cancer cell line (crystal violet, 72 hours); type: cell-based; conditions: read-out: Cell growth suppression IC50
# In short: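 Cells were seeded at 2,000/well in RPMI-1640 with 10% FBS and grown 1 day, then exposed to compound for 72 h at 37° C, 5% CO2. After glutaraldehyde fixation and 0.05% crystal violet staining, extracted dye was read at 540 nm. IC50 (μM) came from growth inhibition relative to untreated and cell-free wells.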
# [2] = A673, Ewing's sarcoma, 2000 cell/well, read-out: cell proliferation inhibitory effect, A673
# [3] = A2780, Ovarian Cancer, 2000 cell/well, read-out: cell proliferation inhibitory effect, A2780
# [4] = ACHN, Kidney Cancer, 2000 cell/well, read-out: cell proliferation inhibitory effect, ACHN
# [5] = CFPAC-1, Pancreatic Cancer, 2000 cell/well, read-out: cell proliferation inhibitory effect, CFPAC-1
# [6] = DU-145, DU145, Prostate Cancer, 5000 cell/well, read-out: cell proliferation inhibitory effect, DU145
# [7] = GB-1, Glioblastoma, 3000 cell/well, read-out: cell proliferation inhibitory effect, GB-1
# [8] = HCT-116, HCT116, Colorectal Cancer, 1000 cell/well, read-out: cell proliferation inhibitory effect, HCT116
# [9] = HLE, Liver Cancer, 3000 cell/well, read-out: cell proliferation inhibitory effect, HLE
# [10] = MSTO-211H, Mesothelioma, 6000 cell/well, read-out: cell proliferation inhibitory effect, MSTO-211H
# [11] = NCI-H460, Lung Cancer, 1000 cell/well, read-out: cell proliferation inhibitory effect, NCI-H460
# [12] = NCI-H2170, Lung Cancer, 5000 cell/well, read-out: cell proliferation inhibitory effect, NCI-H2170
# [13] = NCI-H2228, Lung Cancer, 5000 cell/well, read-out: cell proliferation inhibitory effect, NCI-H2228
# [14] = NUGC-3, Stomach Cancer, 2000 cell/well, read-out: cell proliferation inhibitory effect, NUGC-3
# [15] = RPMI7932, Melanoma, 4000 cell/well, read-out: cell proliferation inhibitory effect, RPMI7932
SMILES,"IC50 [1, 2]","IC50 [1, 3]","IC50 [1, 4]","IC50 [1, 5]","IC50 [1, 6]","IC50 [1, 7]","IC50 [1, 8]","IC50 [1, 9]","IC50 [1, 10]","IC50 [1, 11]","IC50 [1, 12]","IC50 [1, 13]","IC50 [1, 14]","IC50 [1, 15]",IC50 (HCC 1806 cells),"IC50 (HCC 1806 cells; Homo sapiens, HCC1806, 72 h)"
"[2H]C([2H])([2H])C1(O)CCOc2c(S(=O)(=O)N[C@H](c3n[nH]c(=O)o3)[C@H](C)c3c(F)ccc(C)c3C)ccc(Cl)c21 (single isomer, unassigned) [Example 200A]",180 nM,130 nM,130 nM,170 nM,170 nM,370 nM,220 nM,140 nM,170 nM,130 nM,490 nM,500 nM,270 nM,430 nM,50 nM,
"Cc1c(Cl)ccc(F)c1[C@@H](C)[C@H](NS(=O)(=O)c1ccc(Cl)c2c1OCCC2(C)O)c1n[nH]c(=O)o1 (single isomer, unassigned) [Example 209A]",320 nM,300 nM,220 nM,330 nM,310 nM,640 nM,280 nM,260 nM,320 nM,250 nM,570 nM,730 nM,400 nM,720 nM,60 nM,
"Cc1c(Br)ccc(F)c1[C@@H](C)[C@H](NS(=O)(=O)c1ccc(Cl)c2c1OCCC2(C)O)c1n[nH]c(=O)o1 (single isomer, unassigned) [Example 222A]",250 nM,190 nM,170 nM,230 nM,260 nM,460 nM,270 nM,200 nM,270 nM,180 nM,520 nM,480 nM,360 nM,510 nM,60 nM,
"[2H]C([2H])([2H])C1(O)CCOc2c(S(=O)(=O)N[C@H](c3n[nH]c(=O)o3)[C@H](C)c3c(F)ccc(Cl)c3C)ccc(Cl)c21 (single isomer, unassigned) [Example 228A]",400 nM,380 nM,320 nM,360 nM,340 nM,850 nM,380 nM,290 nM,370 nM,310 nM,880 nM,740 nM,510 nM,650 nM,,140 nM
"Cc1ccc(F)c([C@@H](C)[C@H](NS(=O)(=O)c2ccc(Cl)c3c2OCCC3O)c2n[nH]c(=O)o2)c1C (single isomer, unassigned) [Example 235A]",610 nM,400 nM,380 nM,350 nM,530 nM,1120 nM,480 nM,420 nM,390 nM,350 nM,1100 nM,880 nM,710 nM,1230 nM,130 nM,
"Cc1ccc(F)c([C@@H](C)[C@H](NS(=O)(=O)c2ccc(Br)cc2C(N)=O)c2n[nH]c(=O)o2)c1C [Example 1, 5-bromo-2-(N-((1 S,2R)-2-(6-fluoro-2,3-dimethylphenyl)-1-(5-oxo-4,5-dihydro-1,3,4-oxadiazol-2-yl)propyl)sulfamoyl)benzamide]",920 nM,630 nM,680 nM,540 nM,730 nM,1560 nM,750 nM,560 nM,650 nM,570 nM,1410 nM,1350 nM,1120 nM,1740 nM,,160 nM
Cc1ccc(F)c([C@@H](C)[C@H](NS(=O)(=O)c2ccc(Cl)cc2C(N)=O)c2n[nH]c(=O)o2)c1C [Example 5],1090 nM,830 nM,750 nM,940 nM,1040 nM,1570 nM,910 nM,790 nM,700 nM,730 nM,1890 nM,1270 nM,1220 nM,2670 nM,,200 nM
"CCc1ccc(F)c([C@@H](C)[C@H](NS(=O)(=O)c2ccc(Cl)cc2C(N)=O)c2n[nH]c(=O)o2)c1C [Example 11, 5-chloro-2-(N-((1S,2R)-2-(3-ethyl-6-fluoro-2-methylphenyl)-1-(5-oxo-4,5-dihydro-1,3,4-oxadiazol-2-yl)propyl)sulfamoyl)benzamide]",2560 nM,2080 nM,1500 nM,1710 nM,1840 nM,5220 nM,2300 nM,1740 nM,1540 nM,1500 nM,3900 nM,3210 nM,3110 nM,4740 nM,,640 nM
"Cc1c(Cl)ccc(F)c1[C@@H](C)[C@H](NS(=O)(=O)c1ccc(Cl)cc1C(N)=O)c1n[nH]c(=O)o1 [Example 14, 5-chloro-2-(N-((1S,2R)-2-(3 chloro-6-fluoro-2-methylphenyl)-1-(5oxo-4,5-dihydro-1,3,4-oxadiazol-2-yl)propyl)sulfamoyl)benzamide]",1850 nM,1710 nM,980 nM,1420 nM,2220 nM,4600 nM,2200 nM,1300 nM,1580 nM,1350 nM,4180 nM,3530 nM,2830 nM,3210 nM,,560 nM
"Cc1ccc(F)c([C@@H](C)[C@@H](c2n[nH]c(=O)o2)N(C)S(=O)(=O)c2ccc(Cl)cc2C(N)=O)c1C [Example 337, 5-chloro-2-(N-((1S,2R)-2-(6-fluoro-2,3-dimethylphenyl)-1-(5-oxo-4,5-dihydro-1,3,4 oxadiazol-2-yl)propyl)-N-methylsulfamoyl)benzamide]",,,,,,,,,,,,,,,,300 nM

# Source: patent US10889555B2, “Sulfonamide compound or salt thereof” (Taiho Pharmaceutical Co., Ltd., priority 2016, dated 2021)
